Test results published in PubChem BioAssay AID1963445 (Molecular Pharmacology Branch, DTP, NCI, 2024).
“And” between values parts separate entries of the source, which are not always exact repeats. Identical values can stand only once.

System: MCF7 complex spheroid growth, % test/control
Assay: Anticancer human tumor MCF7 cell line growth inhibition [Asc];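 note: spheroids exposed to compounds for 7 days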;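 for viability, T/C: 100% = DMSO vehicle control wells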
Settings: for viability, T/C: stronger effect = lower value; active = viability on the fitted dose curve at most 10% of control; inactive = the rest
Protocol: Multicellular complex tumor spheroid response to apoptosis pathway targeting inhibitors Alrizomadlin, Pelcitoclax, and Dasminapant in combination with a variety of drugs and investigational agents in selected tumor cell lines
The MDM2 inhibitor alrizomadlin, the Bcl-2/Bcl-xL inhibitor pelcitoclax, and the IAPs inhibitor dasminapant were evaluated both individually and in combination with standard of care and investigational anticancer small molecules within a complex spheroid model of solid tumors. . Complex spheroids include a stromal component modeled by human endothelial cells (HUVEC) and fibroblasts modeled by human mesenchymal stem cells (MSCs). The concentration ranges selected for each drug and investigational agent were based upon clinically achievable concentrations if the clinical Cmax of the agent was known.
Compounds. The drugs and investigational agents: alrizomadlin (APG-115; NSC831270), pelcitoclax (APG-1252; NSC835773), dasminapant (APG-1387;NSC834197), TAK-243 (NSC785004), copanlisib (NSC809693), olaparib (NSC753686), talazoparib (NSC767125), cobimetinib (NSC 768068), eltanexor (KPT-8602, NSC 794443), abemaciclib (NSC 768073), sotorasib (NSC818433), adagrasib (NSC 831453), MRTX-1133 (NSC 836407), Iadademestat (ORY1001, NSC 806812), and RMC-4630 (NSC839698), were obtained from the NCI Developmental Therapeutics Program Chemical Repository. The FDA-approved anticancer drug set is available from the Developmental Therapeutics Program at https://dtp.cancer.gov/organization/dscb/obtaining/available plates.htm. […] The stock solutions were prepared in dimethyl sulfoxide (DMSO, Sigma-Aldrich, St. Louis, MO, cat. D2650) at 800-fold the tested concentration and stored at -70 degrees C prior to their use. All drugs and investigational agents were tested over a range starting from a high concentration at or near the clinical Cmax and decreasing in half-log increments. If the clinical Cmax for an agent had not been determined, the highest concentration tested was 10 microM.
The patient-derived cancer (PDC) cell lines include five colon adenocarcinomas: 186277-243-T-J2-PDC, 616215-338-R-J1-PDC, 439559-082-T-J2-PDC, 463943-066-T-J2-PDC, and 519858-162-T-J1-PDC; three pancreatic carcinomas: 323965-272-R-J2-PDC, 521955-158-R6-J3-PDC, and 521955-158-R2-J5-PDC; two uterine sarcomas: 327498-152-R-J2-PDC and 993429-296-R-J1-PDC; two rhabdomyosarcomas: 755483-174-R-J1-PDC and 772245-204-R-J1-PDC; two soft tissue sarcomas: 126254-015-R-J1-PDC and 494315-158-R-J1-PDC; two malignant fibrous histiocytomas: 317291-083-R-J1-PDC and 596521-263-R-J1-PDC; two breast carcinomas: 171881-019-R-J1-PDC and 885512-296-R-J2-PDC; and one ovarian carcinoma: 6556581-035-R-J-PDC were obtained from the NCI PDMR, (https://pdmr.cancer.gov). The established cell lines HSSY-2 synovial sarcoma (RRID:CVCL 8719), SYO-1 synovial sarcoma (RRID:CVCL_7146), MPNST malignant peripheral neural sheath tumor were obtained from the Sloan Kettering Institute. The following established cell lines were purchased from the American Type Culture Collection (ATCC, Manassas, VA), Sor the received from the NCI repository:, PANC-1 pancreatic carcinoma (CRL-1469, RRID:CVCL_0480), OVCAR-5 ovarian carcinoma (RRID:CVCL_1628), OVCAR-8 ovarian carcinoma (RRID:CVCL_1629), , MCF-7 breast carcinoma (CRL-12584, RRID:CVCL_0031), MDA-MB-231 breast carcinoma (CRL-12532, RRID:CVCL_0062), NCI-H1876 small cell lung carcinoma (CRL-5902, RRID:CVCL_1503), NCI-H510A small cell lung carcinoma (HTB-184, RRID:CVCL_1565), NCI-H1417 (CRL-5869, RRID:CVCL_1469), and NCI-H196 small cell lung carcinoma (CRL-5823, RRID:CVCL_1509). Dr. Peter Houghton (Greehey Children's Cancer Research Institute, University of Texas Health Science Center, San Antonio, TX) provided Rh-18 rhabdomyosarcoma (RRID:CVCL_1659). Pooled donor human umbilical vein endothelial cells (HUVEC, Lonza, cat. CC-2519) and human mesenchymal stem cells (hMSC, Lonza, cat. PT-2501) were purchased from Lonza (Walkersville, MD).
Cell Culture. […]

O=C(c1ccc(F)c(F)c1Nc1ccc(I)cc1F)N1CC(O)([C@@H]2CCCCN2)C1 + Cc1c(S(C)(=O)=O)c(-c2cc(F)cc(N3CCN(c4ccc(NS(=O)(=O)c5ccc(NC(CCN6CCC(C(=O)OCCCP(=O)(O)O)CC6)CSc6ccccc6)c(S(=O)(=O)C(F)(F)F)c5)cc4)CC3)c2)c(-c2ccc(Cl)cc2)n1C(C)C
> 1000 nM: IC50 (curve of first compound, second compound 0.0316 µM) | IC50 (curve of first compound, second compound 0.1 µM) | IC50 (curve of first compound, second compound 0.316 µM) | IC50 (curve of first compound, second compound 1 µM) | IC50 (curve of first compound, second compound 3.16 µM) | IC50 (curve of first compound, second compound 10 µM)
inactive: viability, T/C (second compound 0.0316 µM, first compound 0.00316 µM) 101% | viability, T/C (second compound 0.0316 µM, first compound 0.01 µM) 97.2% | viability, T/C (second compound 0.0316 µM, first compound 0.0316 µM) 88.6% | viability, T/C (second compound 0.0316 µM, first compound 0.1 µM) 83.2% | viability, T/C (second compound 0.0316 µM, first compound 0.316 µM) 95.2% | viability, T/C (second compound 0.0316 µM, first compound 1 µM) 112% | viability, T/C (second compound 0.1 µM, first compound 0.00316 µM) 101% | viability, T/C (second compound 0.1 µM, first compound 0.01 µM) 89.7% | viability, T/C (second compound 0.1 µM, first compound 0.0316 µM) 93.6% | viability, T/C (second compound 0.1 µM, first compound 0.1 µM) 88.8% | viability, T/C (second compound 0.1 µM, first compound 0.316 µM) 94.8% | viability, T/C (second compound 0.1 µM, first compound 1 µM) 90% | viability, T/C (second compound 0.316 µM, first compound 0.00316 µM) 90.7% | viability, T/C (second compound 0.316 µM, first compound 0.01 µM) 88.2% | viability, T/C (second compound 0.316 µM, first compound 0.0316 µM) 81% | viability, T/C (second compound 0.316 µM, first compound 0.1 µM) 93.1% | viability, T/C (second compound 0.316 µM, first compound 0.316 µM) 96.4% | viability, T/C (second compound 0.316 µM, first compound 1 µM) 84.2% | viability, T/C (second compound 1 µM, first compound 0.00316 µM) 84.8% | viability, T/C (second compound 1 µM, first compound 0.01 µM) 78% | viability, T/C (second compound 1 µM, first compound 0.0316 µM) 82.9% | viability, T/C (second compound 1 µM, first compound 0.1 µM) 94.5% | viability, T/C (second compound 1 µM, first compound 0.316 µM) 109% | viability, T/C (second compound 1 µM, first compound 1 µM) 74.3% | viability, T/C (second compound 3.16 µM, first compound 0.00316 µM) 80.9% | viability, T/C (second compound 3.16 µM, first compound 0.01 µM) 86.5% | viability, T/C (second compound 3.16 µM, first compound 0.0316 µM) 80.1% | viability, T/C (second compound 3.16 µM, first compound 0.1 µM) 98.5% | viability, T/C (second compound 3.16 µM, first compound 0.316 µM) 82.6% | viability, T/C (second compound 3.16 µM, first compound 1 µM) 81.8% | viability, T/C (second compound 10 µM, first compound 0.00316 µM) 159% | viability, T/C (second compound 10 µM, first compound 0.01 µM) 164% | viability, T/C (second compound 10 µM, first compound 0.0316 µM) 204% | viability, T/C (second compound 10 µM, first compound 0.1 µM) 182% | viability, T/C (second compound 10 µM, first compound 0.316 µM) 114% | viability, T/C (second compound 10 µM, first compound 1 µM) 90.8%

COc1c(OCCCN2CCOCC2)ccc2c3n(c(=NC(=O)c4cnc(N)nc4)nc12)CCN3
45 nM and 53.6 nM and 22.4 nM: IC50 (curve of compound)
inactive: viability, T/C (compound 0.00316 µM) 79.3% and 87.5% and 83.6% | viability, T/C (compound 0.01 µM) 76.8% and 80.8% and 61.1% | viability, T/C (compound 0.0316 µM) 56.2% and 55.1% and 46.3% | viability, T/C (compound 0.1 µM) 29.5% and 33.3% and 43% | viability, T/C (compound 0.316 µM) 12.4% and 14.6% and 17.5%
active: viability, T/C (compound 1 µM) 8.01% and 9.89% and 10%
